Values quoted from earlier work in patent US20240397917A1, “ANIMAL PRODUCTION METHOD” (DSM IP ASSETS B.V., priority 2021, published 2024).

Experiments:
[1] = in vivo
[2] = per 1% increase in plasma levels of 25-OH-D3; average of broiler trials

C=C1CC[C@H](O)C/C1=C/C=C1\CCC[C@]2(C)[C@@H]([C@H](C)CCCC(C)(C)O)CC[C@@H]12 [HyD, calcidiol]
dose without toxic effects [1]: up to 10 times its recommended dose | improvement in ADG [2]: 0.029% | improvement in bone strength [2]: 0.173% | improvement in breast meat yield [2]: 0.008% | improvement in gait score [2]: 0.296% | absorption (at the same level of inclusion in feed): 74.9% | absorption in the intestine in comparison to Vitamin D3 (when fed): more efficient absorption | excretion in comparison to Vitamin D3 (when fed): less excretion | retention in comparison to Vitamin D3 (when fed): greater retention
